Two molecules from US9434711B2 (Janssen Pharmaceutica, NV, priority 2007, dated 2016) can be followed below.

One experiment addresses canine TRPM8 (Canis lupus familiaris, UniProt Q1A7N1). Briefly: In Vitro Canine TRPM8 Functional Assay (Ca2+ fluorescence, icilin activation). The note with it: for IC50: HEK293 cells stably expressing canine TRPM8, icilin activation, eight-point dose-response, read-out: IC50; for inhibition at 0.2 µM: compound at 0.2 μM, canine TRPM8, icilin activation, read-out: % Inh @ 0.2. The format is cell-based. The procedure, abridged:
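Cells (HEK293, stable canine TRPM8) are seeded 24 h before assay. They are then dye-loaded with Calcium 3 at 37 °C followed by room temperature. Compound is added and monitored for 5 min, after which icilin (~80% maximal response) is added.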

The target in the next experiment is rat TRPM8 (Rattus norvegicus (Rat), UniProt Q8R455). Put plainly: In Vitro Rat TRPM8 Functional Assay (Ca2+ fluorescence, icilin EC80). The note with it: read-out: rTRPM8 IC50. The format is cell-based. Here is the method:
HEK293 cells are routinely grown as monolayer in Dulbecco's minimum essential medium supplemented with 10% FBS, 1 mM L-glutamine, 100 units/mL penicillin and 100 ug/mL streptomycin. Cells are maintained in 5% CO2 at 37° C.
For functional expression of TRPM8, the full-length cDNA encoding human and rat TRPM8 are subcloned into pCI-NEO mammalian expression vectors. The expression constructs are transiently transfected into HEK293 cells according to the FuGENE 6 Transfection Reagent® (ROCHE) instructions. Within twenty-four hours, transiently transfected cells are harvested and either seeded directly into assay plate or cryopreserved for future usage. […]
Maximal fluorescence intensity (FI) achieved upon addition of icilin is exported from the FDSS and further analyzed using GraphPad Prism 3.02 (Graph Pad Software Inc., CA, U.S.A.) where data is normalized to percent of maximal response. The dose response curves from the average of quadruplicate wells for each data point are analyzed by using nonlinear regression of either sigmoidal dose response or sigmoidal dose response (variable slope). Finally, the IC50 values are calculated with the best-fit dose curve determined by Prism.

Experiment [1] concerns Male Sprague Dawley rats. Briefly: Inhibition of Icilin-Induced "Wet-Dog" Shakes in Rats. The note with it: Rattus norvegicus, po, HPbCD, Na salt form. The format is in vivo, rat.
The test system of the next experiment is male Sprague-Dawley rats. Briefly: Rat Carrageenan-Induced Radiant Heat Hypersensitivity. The format is in vivo. The note with it: dose 30 p.o., HPbCD, Na salt form. Here is the method: Intraplantar injection of carrageenan into the hind paw of rats causes a robust acute inflammatory response characterized by reddening, swelling and hypersensitivity of the paw to thermal and mechanical stimuli typically peaking 3-6 hours following application and subsiding over the 12-24 hours.
To assess the effect of test compounds of the formula (I) on inflammatory hyperalgesia radiant heat response latencies were evaluated 3 hours following intraplantar carrageenan (Lambda, Type IV, 200 uL) injection into a single hind paw in male Sprague-Dawley rats. The test compound was administered either 2 hours prior to or 1 hour following carrageenan injection. The intent was to determine whether the compound would prevent or retard the hypersensitivity associated with this inflammogen. Baseline thermal response latencies were determined prior to any treatment and again 3 hours after carrageenan injection. Percent reversal of hyperalgesia relative to vehicle treatment (% R) was calculated for both compound treatment paradigms according to the following formula and is depicted in Table 8: % R=(Post compound latency−Post vehicle latency)/((Baseline latency−Post vehicle latency)×100%

Experiment [2] relates to Male Sprague Dawley rats. Briefly: Chronic Constriction Injury (CCI)-Induced Model of Neuropathic Pain, Acetone-Induced Hypersensitivity. The format is in vivo, rat. The note with it: Rattus norvegicus, po, Na salt form; for inhibition in vivo at 3 mg/kg: 3 mg/kg p.o.; for inhibition in vivo at 10 mg/kg: 10 mg/kg p.o.; for inhibition in vivo at 17.8 mg/kg: 17.8 mg/kg p.o.; for inhibition in vivo at 30 mg/kg: 30 mg/kg p.o.; for inhibition in vivo at 56 mg/kg: 56 mg/kg p.o.

The mark [3] stands for this setting: treatment 1 hour relative to Cg.
Setting [4] is: treatment −2 hours relative to Cg.
[5] abbreviates: 4 h, vehicle HPbCD, Water, pretreatment 4 hr, read-out: Percent Inhibition.
[6] abbreviates: 4 h, HPbCD, pretreatment 4 hr, read-out: Percent Inhibition.
[7] abbreviates: 4 h, Water, pretreatment 4 hr, read-out: Percent Inhibition.

Where two headings read alike, the source gives them in different places.

canine TRPM8, sequence (Q1A7N1 1-1104): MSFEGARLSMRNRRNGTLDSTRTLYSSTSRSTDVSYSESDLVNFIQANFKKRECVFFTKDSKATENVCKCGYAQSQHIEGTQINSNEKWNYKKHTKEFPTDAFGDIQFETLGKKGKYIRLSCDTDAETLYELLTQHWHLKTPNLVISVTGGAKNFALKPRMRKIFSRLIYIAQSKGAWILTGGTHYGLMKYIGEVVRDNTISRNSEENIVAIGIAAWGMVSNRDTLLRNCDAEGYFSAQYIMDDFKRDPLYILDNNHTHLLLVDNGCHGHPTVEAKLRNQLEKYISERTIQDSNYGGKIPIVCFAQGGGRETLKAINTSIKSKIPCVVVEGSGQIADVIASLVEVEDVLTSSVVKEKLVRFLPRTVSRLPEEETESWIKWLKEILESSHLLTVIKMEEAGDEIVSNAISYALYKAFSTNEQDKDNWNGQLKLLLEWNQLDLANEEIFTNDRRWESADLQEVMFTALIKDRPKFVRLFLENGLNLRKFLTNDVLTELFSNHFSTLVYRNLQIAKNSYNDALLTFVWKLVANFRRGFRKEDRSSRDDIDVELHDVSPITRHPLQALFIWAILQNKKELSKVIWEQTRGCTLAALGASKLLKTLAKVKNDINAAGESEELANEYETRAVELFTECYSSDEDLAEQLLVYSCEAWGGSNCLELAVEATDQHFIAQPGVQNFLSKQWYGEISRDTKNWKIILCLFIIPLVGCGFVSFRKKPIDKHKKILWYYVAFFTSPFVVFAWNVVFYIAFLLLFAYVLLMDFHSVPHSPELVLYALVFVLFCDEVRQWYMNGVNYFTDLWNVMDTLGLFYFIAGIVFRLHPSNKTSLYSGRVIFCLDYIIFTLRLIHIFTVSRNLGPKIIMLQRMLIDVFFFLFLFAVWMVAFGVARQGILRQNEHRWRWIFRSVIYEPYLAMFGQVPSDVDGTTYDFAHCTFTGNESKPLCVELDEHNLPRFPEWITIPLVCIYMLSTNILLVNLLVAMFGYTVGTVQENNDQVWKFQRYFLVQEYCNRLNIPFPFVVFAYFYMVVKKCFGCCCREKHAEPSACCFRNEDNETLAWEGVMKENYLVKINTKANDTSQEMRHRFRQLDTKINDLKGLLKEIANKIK
rat TRPM8, sequence (Q8R455 whole entry): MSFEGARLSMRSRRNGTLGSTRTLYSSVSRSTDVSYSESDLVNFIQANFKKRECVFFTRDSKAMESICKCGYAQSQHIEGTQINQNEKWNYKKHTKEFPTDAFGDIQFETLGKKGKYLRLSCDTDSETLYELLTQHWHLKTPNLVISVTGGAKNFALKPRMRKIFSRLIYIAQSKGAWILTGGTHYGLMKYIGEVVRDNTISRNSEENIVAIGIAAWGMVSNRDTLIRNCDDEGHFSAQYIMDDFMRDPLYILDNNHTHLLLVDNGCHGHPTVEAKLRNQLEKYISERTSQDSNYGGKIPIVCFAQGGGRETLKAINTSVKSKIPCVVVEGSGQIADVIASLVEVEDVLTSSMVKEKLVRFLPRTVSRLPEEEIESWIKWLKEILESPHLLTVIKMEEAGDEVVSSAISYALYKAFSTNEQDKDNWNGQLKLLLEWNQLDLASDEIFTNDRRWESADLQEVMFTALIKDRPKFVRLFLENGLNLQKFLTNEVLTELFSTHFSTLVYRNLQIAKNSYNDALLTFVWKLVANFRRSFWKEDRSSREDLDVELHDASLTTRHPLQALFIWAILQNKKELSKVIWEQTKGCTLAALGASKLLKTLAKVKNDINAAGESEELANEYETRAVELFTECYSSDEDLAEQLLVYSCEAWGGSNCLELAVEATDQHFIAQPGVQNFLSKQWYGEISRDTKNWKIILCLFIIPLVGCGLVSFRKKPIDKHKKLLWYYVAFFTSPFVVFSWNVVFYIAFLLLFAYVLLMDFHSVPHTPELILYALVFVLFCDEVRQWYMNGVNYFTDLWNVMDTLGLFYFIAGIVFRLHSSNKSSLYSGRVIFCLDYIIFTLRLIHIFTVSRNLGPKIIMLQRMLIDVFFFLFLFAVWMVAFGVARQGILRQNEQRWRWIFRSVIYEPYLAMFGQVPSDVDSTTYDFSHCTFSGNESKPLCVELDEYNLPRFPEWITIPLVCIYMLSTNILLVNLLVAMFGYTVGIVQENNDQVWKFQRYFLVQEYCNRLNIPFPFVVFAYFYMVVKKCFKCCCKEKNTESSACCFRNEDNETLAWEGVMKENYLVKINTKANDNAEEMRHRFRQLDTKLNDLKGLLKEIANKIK

As for `Cc1c(N(Cc2ccc(F)c(C(F)(F)F)c2)S(=O)(=O)c2ccc(C(=O)O)cc2)sc2ccccc12` [Compound 306, N-(3-Methyl-benzo[b]thiophen-2-yl)-N-(4-fluoro-3-trifluoromethyl-benzyl)-4-carboxy-benzenesulfonamide], at canine TRPM8, the IC50 is 0.8 nM and the inhibition at 0.2 µM came to 102%. Besides, the IC50 on rat TRPM8 (Freshly transfected cells) amounted to 5 nM. In the experiment on Male Sprague Dawley rats [1] (1 h, 60 min pre-icilin), the ED50 stood at 2.5 mg/kg. Besides, in the experiment with male Sprague-Dawley rats (setting [3]), the “Percent Reversal, relative to vehicle” value came to 100%. The “Percent Reversal, relative to vehicle” value with male Sprague-Dawley rats (setting [4]) is 64%. Further, in the experiment on Male Sprague Dawley rats [2] (setting [5]), the inhibition in vivo at 3 mg/kg was 20%, the inhibition in vivo at 10 mg/kg came out at 38%, the inhibition in vivo at 17.8 mg/kg came to 57% and the inhibition in vivo at 30 mg/kg stood at 68%. In the experiment with Male Sprague Dawley rats [2] (setting [5]), the inhibition in vivo at 56 mg/kg was 77%. Also, in the experiment with Male Sprague Dawley rats [2] (4 h, 100 mg/kg p.o., vehicle HPbCD, Water, pretreatment 4 hr, read-out: Percent Inhibition), the inhibition in vivo at 100 mg/kg worked out at 77%. Further, in the experiment on Male Sprague Dawley rats [2] (6 h, HPbCD, pretreatment 6 hr, read-out: Percent Inhibition), the inhibition in vivo at 30 mg/kg was 69%. In the experiment with Male Sprague Dawley rats [2] (vehicle HPbCD, Water, pretreatment 4 hr), the ED50 was 15 mg/kg.
Take `Cc1c(N(Cc2ccc(OC(F)(F)F)cc2)S(=O)(=O)c2ccc(C(=O)O)cc2)sc2ccccc12` [Compound 496, N-(3-Methyl-benzo[b]thiophen-2-yl)-N-(4-trifluoromethoxy-benzyl)-4-carboxy-benzenesulfonamide]: the IC50 at canine TRPM8 came to 0.8 nM; on rat TRPM8 (Cryopreserved cells), 1.8 nM. Further, the inhibition at 0.2 µM on canine TRPM8 was determined as 101%. Further, the ED50 with Male Sprague Dawley rats [1] (2 h, 120 min pre-icilin) came out at 2.5 mg/kg; in the experiment on Male Sprague Dawley rats [2] (HPbCD, pretreatment 4 hr), 3.5 mg/kg. In addition, the “Percent Reversal, relative to vehicle” value in the experiment with male Sprague-Dawley rats (setting [3]) came to 106%; in the experiment with male Sprague-Dawley rats (setting [4]) it was 74%. The inhibition in vivo at 30 mg/kg with Male Sprague Dawley rats [2] (2 h, Water, pretreatment 2 hr, read-out: Percent Inhibition) is 74%; in the experiment on Male Sprague Dawley rats [2] (setting [7]), 72%. In addition, the inhibition in vivo at 0.3 mg/kg in the experiment with Male Sprague Dawley rats [2] (4 h, 0.3 mg/kg p.o., HPbCD, pretreatment 4 hr, read-out: Percent Inhibition) came to 28%. In addition, the inhibition in vivo at 1 mg/kg in the experiment with Male Sprague Dawley rats [2] (4 h, 1 mg/kg p.o., HPbCD, pretreatment 4 hr, read-out: Percent Inhibition) is 32%. For the same molecule, the inhibition in vivo at 3 mg/kg in the experiment on Male Sprague Dawley rats [2] (setting [6]) amounted to 23%. Moreover, the inhibition in vivo at 5.6 mg/kg with Male Sprague Dawley rats [2] (4 h, 5.6 mg/kg p.o., HPbCD, pretreatment 4 hr, read-out: Percent Inhibition) was found to be 72%. Moreover, the inhibition in vivo at 10 mg/kg came out at 71% with Male Sprague Dawley rats [2] (setting [6]) and 76% with Male Sprague Dawley rats [2] (setting [7]). Moreover, the inhibition in vivo at 17.8 mg/kg in the experiment on Male Sprague Dawley rats [2] (setting [7]) amounted to 64%. Also, the inhibition in vivo at 56 mg/kg with Male Sprague Dawley rats [2] (setting [7]) is 68%.

What is called IC50 is the point on the concentration scale where inhibition reaches its midpoint. The ED50 is the dose that gives a 50% effect, or the effect in half of the subjects.
